In paper PMC10287566, “Signaling-specific inhibition of the CB1 receptor for cannabis use disorder: phase 1 and phase 2a randomized trials” (Nature Medicine, 2023):

Legend:
[1] = tested on: volunteers with CUD; test: Phase 2a study, subjective effects of smoked cannabis (VAS, CRF); type: in vivo, human; conditions: for reduction of cannabis' positive subjective effects compared to placebo: Phase 2a
Method: Participants, in groups of 3−4, completed two 5-d inpatient periods (first period ‘A’ and second period ‘B’) separated by a ≥ 14-d outpatient washout. During the two testing periods, participants received AEF0117 or matching placebo in counterbalanced order (two dosing sequences: AEF0117 first or placebo first). Participants took capsules at 9:00 each day and then smoked a controlled amount of cannabis (approximately 67 mg of THC smoked over 6 min) 3.5 h later (12:30). Ratings of the subjective effects of cannabis were done five times after cannabis administration (20 min, 40 min, 60 min, 90 min and 120 min after cannabis) using a VAS (0–100 mm). […] Participants were told that the cannabis strength could vary from day to day and between participants but that the cannabis they each received at 12:30 that day was the strength available for self-administration that day.
The primary endpoint measuring the good subjective effect of cannabis related to addiction was an ‘Intoxication’ subscale based on a cluster analysis of the 44-item VAS[22], comprising the arithmetic mean of two items: ‘I feel a Good Effect’ and ‘I feel High’[22]. The positive subjective effects of cannabis were further assessed by individual items on the Cannabis Rating Form (CRF)[23], where participants rated the cannabis that they had most recently smoked in terms of ‘Cannabis Cigarette Liking’ and ‘Felt Good Cannabis Effect’ (key secondary endpoints) using a VAS. Cannabis self-administration was evaluated by measuring the number of puffs purchased at each timepoint (key secondary endpoint).
Data from the first dose level were reviewed by the Data Safety Monitoring Board before ascending to the next dose level.
Ratings of subjective effects of cannabis were performed using multiple items from two different instruments: (1) the 44-item VAS[22] and (2) the CRF[23]. Both instruments used visual analog scales (from 0 mm to 100 mm) to measure subjective effects. […] The subscale of the 44-item VAS was initially named the ‘Good Cannabis Effect’ subscale. Before starting the statistical analysis, this subscale was renamed ‘Intoxication’ subscale to avoid confusion with a key secondary endpoint on the CRF labeled ‘Felt Good Cannabis Effect’.
On each study day (days 1–5), at approximately 12:30, participants received an experimenter-administered ‘sample’ of cannabis (two cannabis cigarettes of approximately 800 mg, 7% THC, provided by NIDA). They were guided by an investigator through smoking a total of six 5-s inhalations using a paced-puff smoking procedure, where inhalation duration, time spent holding smoke in the lungs and inter-puff interval were timed. […] To capture a full timecourse of cannabis effects, participants completed the 44-item VAS and a CRF at 12:50, 13:10, 13:30, 14:[…].
As specified in the SAP, the statistical analyses employed an MMRM analysis using the REML as estimation method and structured covariance matrix with compound symmetry; the model included as factors and covariates: sequence, dose, treatment, time and days as fixed effects and subject within sequence as random effect.
Based on the SAP, the following analytical steps depending on results of the various analyses were undertaken. The primary and key secondary endpoints were first analyzed with a global crossover MMRM analysis (using combined cohorts: 0.06 mg + 1 mg).

[2] = tested on: volunteers with CUD; test: Phase 2a study, precipitated withdrawal, mood and sleep; type: in vivo, human
Method: In addition to general safety assessment of vital signs, clinical chemistry and AEs, symptoms of cannabis withdrawal were assessed by daily measures of food intake, body weight, sleep efficiency[23],[41],[42] and mood[22]. […]
We measured seven subscales of the 44-item VAS (‘Miserable’, ‘Anxious’, ‘Tired’, ‘Confused’, ‘Irritable’, ‘Social’ and ‘Bad effect’). […] Ratings were then done repeatedly (five times at 20, 40, 60, 90 and 120 min after cannabis).

[3] = global crossover, 0.06 mg, 20 min after THC
[4] = global crossover, 0.06 mg, 40 min after THC
[5] = global crossover, 0.06 mg, 60 min after THC
[6] = global crossover, 0.06 mg, 90 min after THC
[7] = global crossover, 0.06 mg, 105 min after THC
[8] = global crossover, 1 mg, 20 min after THC
[9] = global crossover, 1 mg, 40 min after THC
[10] = global crossover, 1 mg, 60 min after THC
[11] = global crossover, 1 mg, 90 min after THC
[12] = global crossover, 1 mg, 105 min after THC
[13] = parallel group (period A), 0.06 mg, 20 min after THC
[14] = parallel group (period A), 0.06 mg, 40 min after THC
[15] = parallel group (period A), 0.06 mg, 60 min after THC
[16] = parallel group (period A), 0.06 mg, 90 min after THC
[17] = parallel group (period A), 0.06 mg, 105 min after THC
[18] = parallel group (period A), 1 mg, 20 min after THC
[19] = parallel group (period A), 1 mg, 40 min after THC
[20] = parallel group (period A), 1 mg, 60 min after THC
[21] = parallel group (period A), 1 mg, 90 min after THC
[22] = parallel group (period A), 1 mg, 105 min after THC

Compound: COc1ccc(CO[C@H]2CC[C@@]3(C)C(=CC[C@H]4[C@@H]5CC[C@H](C(C)=O)[C@@]5(C)CC[C@@H]43)C2)cc1 [AEF0117, 3β-(4-methoxybenzyloxy)pregn-5-en-20-one]
- cannabis ratings ([1]; 0.06 mg, parallel group analysis, period A): significant reduction
- 'Felt Good Cannabis Effect' item on the CRF ([1]; 1 mg, global crossover MMRM): significantly reduced
- ratings on the 'Intoxication' subscale of the 44-item VAS ([1]; 1 mg, global crossover MMRM): significantly reduced
- reduction of cannabis' positive subjective effects compared to placebo ([1]; 0.06 mg): 19%
- reduction of cannabis' positive subjective effects compared to placebo ([1]; 1 mg): 38%
- Cannabis cigarette liking item, mean [1, 3]: 76.2 mm
- Felt good cannabis effect item, mean [1, 3]: 77.9 mm
- Intoxication subscale, mean [1, 3]: 63.7 mm
- Cannabis cigarette liking item, mean [1, 4]: 74.9 mm
- Felt good cannabis effect item, mean [1, 4]: 76.1 mm
- Intoxication subscale, mean [1, 4]: 58.8 mm
- Cannabis cigarette liking item, mean [1, 5]: 72.6 mm
- Felt good cannabis effect item, mean [1, 5]: 72.7 mm
- Intoxication subscale, mean [1, 5]: 53.9 mm
- Cannabis cigarette liking item, mean [1, 6]: 73.5 mm
- Felt good cannabis effect item, mean [1, 6]: 75.8 mm
- Intoxication subscale, mean [1, 6]: 47.1 mm
- Cannabis cigarette liking item, mean [1, 7]: 73.2 mm
- Felt good cannabis effect item, mean [1, 7]: 75.0 mm
- Intoxication subscale, mean [1, 7]: 44.4 mm
- Cannabis cigarette liking item, mean [1, 8]: 61.7 mm
- Felt good cannabis effect item, mean [1, 8]: 66.8 mm
- Intoxication subscale, mean [1, 8]: 66.8 mm
- Cannabis cigarette liking item, mean [1, 9]: 57.8 mm
- Felt good cannabis effect item, mean [1, 9]: 62.4 mm
- Intoxication subscale, mean [1, 9]: 61.5 mm
- Cannabis cigarette liking item, mean [1, 10]: 54.8 mm
- Felt good cannabis effect item, mean [1, 10]: 58.0 mm
- Intoxication subscale, mean [1, 10]: 57.2 mm
- Cannabis cigarette liking item, mean [1, 11]: 54.0 mm
- Felt good cannabis effect item, mean [1, 11]: 56.1 mm
- Intoxication subscale, mean [1, 11]: 48.2 mm
- Cannabis cigarette liking item, mean [1, 12]: 54.4 mm
- Felt good cannabis effect item, mean [1, 12]: 54.7 mm
- Intoxication subscale, mean [1, 12]: 43.7 mm
- Cannabis cigarette liking item, mean [1, 13]: 68.3 mm
- Felt good cannabis effect item, mean [1, 13]: 73.0 mm
- Intoxication subscale, mean [1, 13]: 57.1 mm
- Cannabis cigarette liking item, mean [1, 14]: 65.5 mm
- Felt good cannabis effect item, mean [1, 14]: 70.2 mm
- Intoxication subscale, mean [1, 14]: 50.9 mm
- Cannabis cigarette liking item, mean [1, 15]: 62.3 mm
- Felt good cannabis effect item, mean [1, 15]: 65.7 mm
- Intoxication subscale, mean [1, 15]: 44.4 mm
- Cannabis cigarette liking item, mean [1, 16]: 61.8 mm
- Felt good cannabis effect item, mean [1, 16]: 67.4 mm
- Intoxication subscale, mean [1, 16]: 38.0 mm
- Cannabis cigarette liking item, mean [1, 17]: 63.1 mm
- Felt good cannabis effect item, mean [1, 17]: 68.2 mm
- Intoxication subscale, mean [1, 17]: 37.8 mm
- Cannabis cigarette liking item, mean [1, 18]: 63.9 mm
- Felt good cannabis effect item, mean [1, 18]: 67.9 mm
- Intoxication subscale, mean [1, 18]: 67.0 mm
- Cannabis cigarette liking item, mean [1, 19]: 59.3 mm
- Felt good cannabis effect item, mean [1, 19]: 60.6 mm
- Intoxication subscale, mean [1, 19]: 58.9 mm
- Cannabis cigarette liking item, mean [1, 20]: 54.5 mm
- Felt good cannabis effect item, mean [1, 20]: 53.3 mm
- Intoxication subscale, mean [1, 20]: 54.5 mm
- Cannabis cigarette liking item, mean [1, 21]: 55.7 mm
- Felt good cannabis effect item, mean [1, 21]: 50.7 mm
- Intoxication subscale, mean [1, 21]: 45.5 mm
- Cannabis cigarette liking item, mean [1, 22]: 55.9 mm
- Felt good cannabis effect item, mean [1, 22]: 52.3 mm
- Intoxication subscale, mean [1, 22]: 40.8 mm
- 'Social' subscale rating after smoking cannabis, mean (SEM) ([2]; 0.06 mg cohort, Day 1): 66.9 (4.3)
- 'Social' subscale, AEF0117-Placebo ([2]; 0.06 mg cohort, Day 1): -5.9
- 'Social' subscale rating after smoking cannabis, mean (SEM) ([2]; 0.06 mg cohort, Day 2): 67.4 (5.8)
- 'Social' subscale, AEF0117-Placebo ([2]; 0.06 mg cohort, Day 2): -3.1
- 'Social' subscale rating after smoking cannabis, mean (SEM) ([2]; 0.06 mg cohort, Day 3): 64.4 (6.0)
- 'Social' subscale, AEF0117-Placebo ([2]; 0.06 mg cohort, Day 3): -6.6
- 'Social' subscale rating after smoking cannabis, mean (SEM) ([2]; 0.06 mg cohort, Day 4): 63.9 (5.6)
- 'Social' subscale, AEF0117-Placebo ([2]; 0.06 mg cohort, Day 4): -7.8
- 'Social' subscale rating after smoking cannabis, mean (SEM) ([2]; 0.06 mg cohort, Day 5): 64.0 (5.8)
- 'Social' subscale, AEF0117-Placebo ([2]; 0.06 mg cohort, Day 5): -6.0
- 'Social' subscale rating after smoking cannabis, mean (SEM) ([2]; 1 mg cohort, Day 1): 71.9 (5.5)
- 'Social' subscale, AEF0117-Placebo ([2]; 1 mg cohort, Day 1): 3.9
- 'Social' subscale rating after smoking cannabis, mean (SEM) ([2]; 1 mg cohort, Day 2): 71.4 (5.2)
- 'Social' subscale, AEF0117-Placebo ([2]; 1 mg cohort, Day 2): 1.3
- 'Social' subscale rating after smoking cannabis, mean (SEM) ([2]; 1 mg cohort, Day 3): 71.1 (5.6)
- 'Social' subscale, AEF0117-Placebo ([2]; 1 mg cohort, Day 3): 0.1
- 'Social' subscale rating after smoking cannabis, mean (SEM) ([2]; 1 mg cohort, Day 4): 67.0 (5.9)
- 'Social' subscale, AEF0117-Placebo ([2]; 1 mg cohort, Day 4): -6.0
- 'Social' subscale rating after smoking cannabis, mean (SEM) ([2]; 1 mg cohort, Day 5): 69.5 (6.6)
- 'Social' subscale, AEF0117-Placebo ([2]; 1 mg cohort, Day 5): -1.6
- difference between AEF0117 and placebo on the 'Social' subscale ([2]; 100-mm scale, after cannabis): < 8 mm
- precipitation of cannabis withdrawal ([2]; Phase 2a, 0.06 and 1 mg): little to suggest that AEF0117 precipitated cannabis withdrawal
- 'Irritable' subscale, effect of treatment ([2]; Treatment x Day x Time, before cannabis): small but significant effect
